Active and inactive are the calls of the source. No cut-off for these calls is given here. Bounds are passed on as bounds.

Series [1] concerns MIA PaCa-2. Put plainly: Cytotoxicity against human MIAPaCa2 cells assessed as growth inhibition at 10 uM measured after 48 hrs by MTT assay relative to control. The class given is functional. To be noted: for inhibition of growth at 10 µM: MIA PaCa-2, 48 h, read-out: GI.
Series [2] deals with MCF7. Briefly: Cytotoxicity against human MCF7 cells assessed as growth inhibition at 10 uM measured after 48 hrs by MTT assay relative to control. Type of series: functional. To be noted: for inhibition of growth at 10 µM: MCF7, 48 h, read-out: GI.
For series [3], the system named is HepG2. Briefly: Cytotoxicity against human HepG2 cells assessed as growth inhibition at 10 uM measured after 48 hrs by MTT assay relative to control. The class given is functional. The note with it: for inhibition of growth at 10 µM: HepG2, 48 h, read-out: GI.
The nature of series [4]: Cytotoxicity against human FR2 cells assessed as growth inhibition at 10 uM measured after 48 hrs by MTT assay relative to control. The class given is cell-based. The note with it: for inhibition at 48 h, 10 µM: FR2 cells, read-out: GI; for growth inhibition (GI): fr2, 48 h, 10 µM.
For series [5], the system named is A549. Briefly: Cytotoxicity against human A549 cells assessed as growth inhibition at 10 uM measured after 48 hrs by MTT assay relative to control. Type of series: functional. The note with it: for inhibition of growth at 10 µM: A549, 48 h, read-out: GI.
Series [6] concerns MCF7. Put plainly: Cytotoxicity against human MCF7 cells measured after 48 hrs by MTT assay. Type of series: functional, cell-based. To be noted: MCF7, 48 h.
Series [7] concerns MIA PaCa-2. Put plainly: Cytotoxicity against human MIAPaCa2 cells measured after 48 hrs by MTT assay. Type of series: functional, cell-based. To be noted: MIA PaCa-2, 48 h.
Series [8] can be described thus: Cytotoxicity against human FR2 cells measured after 48 hrs by MTT assay. Type of series: cell-based. To be noted: FR2, 48 h.
Series [9] relates to A549. Put plainly: Cytotoxicity against human A549 cells measured after 48 hrs by MTT assay. Type of series: functional, cell-based. The note with it: A549, 48 h.
Series [10] relates to HepG2. Briefly: Cytotoxicity against human HepG2 cells measured after 48 hrs by MTT assay. The class given is functional, cell-based. To be noted: HepG2, 48 h.

As for `O=C(/C=C/c1ccc(OCc2cn(Cc3ccccc3)nn2)cc1)c1ccc(Br)cc1`, the inhibition of growth at 10 µM in series [1] stood at 44%; in [2] it was 34%; in [3] it was 22%; in [5], 34%. For the same compound, in [4], the inhibition at 48 h, 10 µM stood at 7%.

On to `C#CCOc1ccc(/C=C/C(=O)c2ccc([N+](=O)[O-])cc2)cc1`, for which the inhibition of growth at 10 µM was found to be 42% in [1], 44% in series [2], 27% in series [3] and 33% in [5]. Further, the inhibition at 48 h, 10 µM in series [4] came to 2%.

In the case of `O=C(/C=C/c1ccc(OCc2cn(Cc3ccc(F)cc3)nn2)cc1)c1ccc(Br)cc1`, the inhibition of growth at 10 µM was found to be 32% in series [1], 37% in series [2], 22% in series [3] and 43% in [5]. In addition, the inhibition at 48 h, 10 µM in series [4] is 7%.

With `O=C(/C=C/c1ccc(OCc2cn(Cc3ccccc3Br)nn2)cc1)c1ccc([N+](=O)[O-])cc1`, the inhibition of growth at 10 µM in [1] amounted to 34%; in series [2], 43%; in series [3] it was 32%; in series [5], 42%. The inhibition at 48 h, 10 µM in series [4] came out at 2%.

For the compound `O=C(/C=C/c1ccc(OCc2cn(Cc3ccc(Br)cc3)nn2)cc1)c1ccc(Br)cc1`, the inhibition of growth at 10 µM in [1] came out at 29%; in [2], 23%; in [3], 22%; in series [5] it was 27%. The inhibition at 48 h, 10 µM in series [4] was found to be 11%.

In the case of `COc1ccc(C(=O)/C=C/c2ccc(OCc3cn(Cc4ccccc4Br)nn3)cc2)cc1`, the inhibition of growth at 10 µM is 50% in series [1], 60% in series [2], 44% in [3] and 52% in [5]. For the same compound, the IC50 was 7 µM in series [6]; 10 µM in series [7]; greater than 100 µM in series [8]; 10 µM in series [9]; 20 µM in [10]. Moreover, the inhibition at 48 h, 10 µM in series [4] worked out at 7%.

For `O=C(/C=C/c1ccc(OCc2cn(Cc3ccccc3)nn2)cc1)c1ccc([N+](=O)[O-])cc1`, the “growth inhibition (GI)” value in series [1], in series [2], in [3] and in series [5] was “inactive” each time. Besides, the “growth inhibition (GI)” value in [4] is reported as “Non-Toxic”.

For `O=C(/C=C/c1ccc(OCc2cn(Cc3cccc(Br)c3)nn2)cc1)c1ccc(Br)cc1`, the inhibition of growth at 10 µM in series [1] was 43%; in series [2] it was 36%; in series [3] it was 25%; in series [5], 44%. For the same compound, in series [4], the inhibition at 48 h, 10 µM was 9%.

On to `O=C(/C=C/c1ccc(OCc2cn(Cc3ccccc3Br)nn2)cc1)c1ccc(Br)cc1`, for which the inhibition of growth at 10 µM was 43% in series [1], 44% in series [2], 34% in series [3] and 44% in [5]. In series [4], the inhibition at 48 h, 10 µM was found to be 11%.

Consider `O=C(/C=C/c1ccc(OCc2cn(Cc3cccc(F)c3)nn2)cc1)c1ccc(Br)cc1`, for which the inhibition of growth at 10 µM was determined as 34% in [1], 42% in series [2], 34% in series [3] and 37% in series [5]. Besides, in [4], the inhibition at 48 h, 10 µM was 4%.

Turning to `O=C(/C=C/c1ccc(OCc2cn(Cc3ccccc3F)nn2)cc1)c1ccc(Br)cc1`, the inhibition of growth at 10 µM in series [1] amounted to 28%; in [2], 38%; in [3], 29%; in [5], 38%. In addition, the inhibition at 48 h, 10 µM in series [4] was found to be 8%.

As to `COc1ccc(C(=O)/C=C/c2ccc(OCc3cn(Cc4cccc(F)c4)nn3)cc2)cc1`, the inhibition of growth at 10 µM in series [1] amounted to 48%; in series [2] it was 41%; in [3], 22%; in [5], 56%. Also, the IC50 was 55 µM in [6]; 15 µM in series [7]; greater than 100 µM in series [8]; 9 µM in series [9]; 85 µM in [10]. In series [4], the inhibition at 48 h, 10 µM stood at 12%.

For the compound `C#CCOc1ccc(/C=C/C(=O)c2ccc(OC)cc2)cc1`, the inhibition of growth at 10 µM came out at 32% in series [1], 32% in [2], 25% in series [3] and 27% in series [5]. In addition, the inhibition at 48 h, 10 µM in [4] amounted to 8%.

Take `COc1ccc(C(=O)/C=C/c2ccc(OCc3cn(Cc4ccc(F)cc4)nn3)cc2)cc1`: the inhibition of growth at 10 µM in series [1] stood at 6%; in series [2], 15%; in series [3], 21%; in series [5], 33%. The “growth inhibition (GI)” value in series [4] is “Non-Toxic”.

Regarding `O=C(/C=C/c1ccc(OCc2cn(Cc3ccc(Br)cc3)nn2)cc1)c1ccc([N+](=O)[O-])cc1`, the inhibition of growth at 10 µM in series [1] was 17%; in [2], 18%; in [3] it was 21%; in series [5], 18%. In addition, the inhibition at 48 h, 10 µM in series [4] was 10%.

On to `C#CCOc1ccc(/C=C/C(=O)c2ccc(Br)cc2)cc1`, for which the inhibition of growth at 10 µM came to 34% in [1], 45% in series [2], 22% in [3] and 34% in series [5]. Also, in series [4], the inhibition at 48 h, 10 µM is 9%.

With `O=C(/C=C/c1ccc(OCc2cn(Cc3cccc(F)c3)nn2)cc1)c1ccc([N+](=O)[O-])cc1`, the inhibition of growth at 10 µM is 32% in [1], 30% in series [2], 43% in series [3] and 33% in series [5]. The inhibition at 48 h, 10 µM in series [4] is 5%.

`O=C(/C=C/c1ccc(OCc2cn(Cc3ccc(F)cc3)nn2)cc1)c1ccc([N+](=O)[O-])cc1`: the inhibition of growth at 10 µM in series [1] was 44%; in series [2], 38%; in series [3], 25%; in series [5] it was 34%. Besides, the inhibition at 48 h, 10 µM in series [4] was found to be 8%.

Turning to `O=C(/C=C/c1ccc(OCc2cn(Cc3ccccc3F)nn2)cc1)c1ccc([N+](=O)[O-])cc1`, the inhibition of growth at 10 µM in series [1] was 22%; in series [2] it was 33%; in series [3], 22%; in series [5], 43%. Also, in [4], the inhibition at 48 h, 10 µM was 12%.

`COc1ccc(C(=O)/C=C/c2ccc(OCc3cn(Cc4ccccc4F)nn3)cc2)cc1`: the inhibition of growth at 10 µM in [1] worked out at 19%; in [2], 32%; in series [3] it was 33%; in series [5], 21%. Besides, the inhibition at 48 h, 10 µM in series [4] turned out to be 11%.

As to `O=C(/C=C/c1ccc(OCc2cn(Cc3cccc(Br)c3)nn2)cc1)c1ccc([N+](=O)[O-])cc1`, the inhibition of growth at 10 µM in series [1] turned out to be 21%; in series [2] it was 12%; in [3], 13%; in [5], 28%. For the same compound, the inhibition at 48 h, 10 µM in series [4] was determined as 4%.
